Consider one compound from patent US20080031968A1, “Methods for increasing cellular energy expenditure” (priority 2005, published 2008).

Molecules are shown by their SMILES.

The subject of assay [1] is KK-Ay mice. In words: In vivo VLDL TG production (Tyloxapol) in KK-Ay mice. To be noted: 1-week administration of GW4064. The arrangement: species or system mouse.
For a further assay, the system named is rats. To be noted: rats treated for 7 days; cited from earlier work.
Another assay relates to BAT of C57BL/6J mice. In words: BAT gene expression by microarray and Q-RT-PCR. The class given is in vivo, mouse. To be noted: GW4064 treatment.
Assay [2] relates to KK-Ay mice. In words: CA or GW4064 treatment of KK-Ay mice, serum lipids. The assay is classed as in vivo, mouse. To be noted: chow-fed KK-Ay mice, 1 week, intraperitoneal 10 mg/kg daily. The procedure: (§1) Male C57BL/6J, KK-Ay, and ob/ob (C57BL/6J background) mice, 6-10 weeks of age, were obtained from Elevage Janvier (Le Genest St. Isle, France), CLEA Japan Inc. (Tokyo, Japan), and The Jackson Laboratory (Bar Harbor, Me., USA), respectively. All mice were maintained in a temperature-controlled (23° C.) facility with a 12-hour light/dark cycle and were given free access to food and water. The study protocols were approved by the institutional review boards. The body weight and food intake were measured every second day. The control and high-fat diet was obtained from UAR (Villemoisson sur Orge, France). […] The mice were fasted 4 hours before harvesting blood for subsequent lipid measurements, and tissues for RNA isolation, lipid measurements, and histology.
For measurement of liver TGs and cholesterol content, a liver was homogenized in chloroform/methanol (2:1 v/v) using a Polytron tissue grinder (Kinematica AG, Luzern, Switzerland). Lipid extracts were prepared by the classical Folch method. Extracts were dried under N2 flow and resuspended in isopropanol.

For another assay, the system named is ob/ob mice. In words: GW4064 treatment of ob/ob mice, serum TG. The class given is in vivo, mouse. To be noted: chow-fed ob/ob mice, 1 week, intraperitoneal 10 mg/kg daily. How it is done:
Male C57BL/6J, KK-Ay, and ob/ob (C57BL/6J background) mice, 6-10 weeks of age, were obtained from Elevage Janvier (Le Genest St. Isle, France), CLEA Japan Inc. (Tokyo, Japan), and The Jackson Laboratory (Bar Harbor, Me., USA), respectively. All mice were maintained in a temperature-controlled (23° C.) facility with a 12-hour light/dark cycle and were given free access to food and water. The study protocols were approved by the institutional review boards. The body weight and food intake were measured every second day. The control and high-fat diet was obtained from UAR (Villemoisson sur Orge, France). The control diet (EQ12310) contained 16.8% protein, 73.5% carbohydrate, and 4.8% fat, whereas the high-fat diet (EQ/ID12309) contained 23.0% protein, 35.5% carbohydrate, and 35.9% fat. For treatment with bile acids, mice were fed diets with 0.5% (w/w) CA. The mice were fasted 4 hours before harvesting blood for subsequent lipid measurements, and tissues for RNA isolation, lipid measurements, and histology. Male SHP−/−mice and littermate SHP+/+ controls (C57/BL6-A129/SvJ mixed strain) of 8 weeks were fed the CA diet as just described or gavaged with GW4064 dissolved in corn oil at 30 mg/kg. […]
Serum total cholesterol, TGs, and lipoprotein cholesterol and TG profiles were measured as described (Rocchi, et al., Mol Cell. 8:737-747 (2001); Picard, et al., Cell 111:931-941 (2002)). […]

Another assay has as its system C57BL/6J mice. In words: Diet-induced obesity in C57BL/6J mice. The class given is in vivo, mouse. How it is done:
Male C57BL/6J and KK-Ay mice, 6-7 weeks of age, were obtained from Charles River Laboratories France (l'Arbresle, France) and CLEA Japan Inc. (Tokyo, Japan), respectively. […] All mice were maintained in a temperature-controlled (23° C.) facility with a 12 h light/dark cycle and were given free access to food and water. The control and high-fat diet was obtained from UAR (Villemoison surOrge, France). […] GW4064 was suspended in peanut oil and mixed with the high fat diet at a concentration of 180 mg per kg of food. […] The mice were fasted 4 h before harvesting blood for subsequent blood measurements, and tissues for RNA isolation, lipid measurements and histology. Oxygen consumption was measured using the Oxymax apparatus (Columbus Instruments, Columbus, Ohio).
(§2) An OGTT was performed in animals that were fasted overnight. Glucose was administered by gavage at a dose of 2 g/kg. An IPITT was done in 4 h fasted animals. Insulin was injected at a dose of 0.75 U/kg. Glucose quantification was done with the Maxi Kit Glucometer 4 (Bayer Diagnostic, Puteaux, France) or Glucose RTU (bioMérieux Inc., Marcy l'Etoile, France). Plasma insulin concentrations were measured using ELISA (Cristal Chem Inc., Downers Grove, Ill.). Nonesterified fatty acids, triglycerides, ketone bodies, BA and total cholesterol were determined by enzymatic assays (Roche, Mannheim, Germany). cAMP was measured using the cAMP-Screen system (Applied Biosystems, Bedford, Mass.).
Pieces of mouse tissues were fixed in Bouin's solution, dehydrated in ethanol, embedded in paraffin, and cut at a thickness of 5 μm. Sections were deparaffinized, rehydrated, and stained with haematoxylin and eosin. Transmission electron microscopy was then performed.

The test system of assay [3] is HSMM. In words: D2 activity in human skeletal muscle myoblasts. The assay is classed as cell-based. To be noted: 16 h incubation. How it is done: HSMM were obtained from Cambrex (Walkersville, Md.) and were cultured according to the suppliers instructions. D2 activity measurements were performed after a 16 h incubation with the indicated compounds. For the cAMP measurements, cells were preincubated 12 h in Opti-MEM (Life Technologies, Cergy Pontoise, France), supplemented with 1 mM IBMX. Then medium was changed and cells were incubated for another 1 h in Opti-MEM with 1 mM IBMX, after which the medium was replaced for Opti-MEM with 1 mM IBMX and the indicated compounds. After 30 minutes the cells were lysed for cAMP analysis.

For a further assay, the system named is BAT cells. In words: Isolated mouse BAT cells, D2 mRNA, D2 activity and cAMP. The assay is classed as cell-based. To be noted: BAT cells. The procedure:
as §2

A further assay relates to SHP+/+ and SHP-/- mice. In words: FXR agonists in SHP+/+ and SHP-/- mice. The class given is in vivo, mouse. To be noted: for hepatic expression of SREBP-1c, ME, CYP7A1 and ANGPTL3: 1-day treatment. The procedure:
as §1

Assay [4] has as its system HSMM. In words: cAMP levels in human skeletal muscle myoblasts. To be noted: 1 mM IBMX, 30 minutes. The class given is cell-based.
Experimental: HSMM were obtained from Cambrex (Walkersville, Md.) and were cultured according to the suppliers instructions. […] For the cAMP measurements, cells were preincubated 12 h in Opti-MEM (Life Technologies, Cergy Pontoise, France), supplemented with 1 mM IBMX. Then medium was changed and cells were incubated for another 1 h in Opti-MEM with 1 mM IBMX, after which the medium was replaced for Opti-MEM with 1 mM IBMX and the indicated compounds. After 30 minutes the cells were lysed for cAMP analysis.

Experimental for BAT of C57BL/6J mice: For microarray analysis, RNA was isolated from BAT using the RNeasy mini kit (QIAGEN, Courtaboeuf, France). Equal amounts of RNA from mice in each group were pooled (n=3 or 4 mice) and used for cDNA synthesis. After second-strand cDNA synthesis (Life Technologies, Cergy Pontoise, France), in vitro transcription was performed with biotinylated UTP and CTP (Enzo Diagnostics, Farmingdale, N.Y.). Fragmented cRNA samples were hybridized to the Affymetrix MOE430A microarray. The raw data was analyzed using the Microarray Suite Software version 5.0 (MAS5.0, Affymetrix, Santa Clara, Calif.).

Take `CC(C)c1onc(-c2c(Cl)cccc2Cl)c1COc1ccc(/C=C/c2cccc(C(=O)O)c2)c(Cl)c1` [GW4064]: the VLDL secretion entry in the assay on KK-Ay mice [1] is on record as “significantly lowered”. Further, the “plasma TG” value in the assay with rats is “decreased”. Further, the thermogenic gene response entry in the assay with BAT of C57BL/6J mice is “did not result in an induction”. The “serum TG levels” value in the assay with KK-Ay mice [2] and in the assay with ob/ob mice was “potently lowered” throughout. Also, in the assay with C57BL/6J mice (high fat diet supplemented with GW4064, 15 mg/kg daily), the “effect against diet-induced obesity” value is on record as “no protective effect”. In the assay on C57BL/6J mice (mice on a high fat diet with GW4064), the body weight gain result is given as “significantly increased”. The D2 activity result with HSMM [3] is “did not induce”. The cAMP levels result in the assay on BAT cells and with HSMM [4] was “did not increase” in each case. The “serum TGs” value with SHP+/+ and SHP-/- mice (SHP+/+ mice, 0, 3 and 7 days) is “significantly lowered”. For the same compound, the “hepatic expression of SREBP-1c, ME, CYP7A1 and ANGPTL3” value with SHP+/+ and SHP-/- mice (SHP+/+ mice) was “significantly reduced”; with SHP+/+ and SHP-/- mice (SHP-/- mice), “no decrease”. The “decrease in serum TGs” value in the assay with SHP+/+ and SHP-/- mice (SHP-/- mice) is given as “completely abolished”.
